Data published in US20220378696A1, “TARGET DELIVERY OF NON-BIOLOGICS THROUGH NANOTECHNOLOGY FOR TISSUE REPAIR” (BOARD OF REGENTS, THE UNIVERSITY OF TEXAS SYSTEM, priority 2019, published 2022).

How the values were obtained:
[1] = test system: MMP-2; test: MMP-2 enzyme activity assay (EnzChek) in cells exposed to microcavitation; assay type: cell-based, mouse; conditions: microcavitation (5 blasts), pretreatment 2 h: doxycycline 20 mM, phenanthroline 0.5 mM
Experimental: (§1) MMPs activities assay, Fold change, and Permeability measurement: EnzChek MMP-2 & 9 Assay Kit were used for MMP-2 & 9 activity assays. Cells were cultured in endothelial cell complete media and divided into the following groups: control (no treatment), exposed (5 blasts), doxycycline (20 mM)+exposed (5 blasts), doxycycline (20 mM), and phenanthroline (0.5 mM, positive control). Before initiating experiments, cells were washed with PBS, and no serum media was applied. Dishes in the treatment groups were pretreated with doxycycline or phenanthroline for 2 h at 37° C. Cells were exposed to microcavitation and incubated at 37° C. for 1 h. All groups were homogenized with lysis buffer containing 0.1% Triton-X 100, and protein was estimated with Pierce BCA Protein Assay Kit. Equal amounts of protein from each sample were aliquoted in lysis buffer. Samples were then analyzed using a plate reader at excitation 495 nm and 515 nm to quantitate MMP-2 & 9 activities. Primary brain endothelial cells were grown under the conditions described above. At the end of all experimental conditions, RNA from the cells was extracted and used for PCR analysis of the MMP-2 & 9 gene expressions. Finally, the permeability of the brain endothelium model exposed to doxycycline, P188, or in combination of them both was measured.

[2] = test system: MMP-9; test: MMP-9 enzyme activity assay (EnzChek) in cells exposed to microcavitation; assay type: cell-based, mouse; conditions: microcavitation (5 blasts), pretreatment 2 h: doxycycline 20 mM, phenanthroline 0.5 mM
Experimental: as §1

[3] = test system: brain endothelial cells (BECs); test: Mitochondrial superoxide (MitoSox) in TNF-α stimulated brain endothelial cells; assay type: cell-based, mouse; conditions: BECs stimulated by TNF-a (10 ng/ml) for 4 hours, then treated
Experimental: Next tested was the potential of reparative effects of two non-biologics. One is a triblock biocompatible polymer, known as poloxamers (P188), that was approved by FDA for numerous applications. […] The other compound is N-acetylcysteine (NAC), which is also an FDA-approved antioxidant that is associated with health benefits. […] Using a fluorophore (MitoSox) that preferentially binds to superoxide, the extent of oxidative stress in response to TNF-a were recorded and quantified. Oxidative stress is an important determinant of endothelial injury, which influences a number of cellular responses by activating several intracellular signaling cascades in endothelial cells, leading to the progression of vascular diseases. […] TNF-a induced a significant increase in oxidative stress and, if left untreated, the superoxide level persisted (FIG. 3B). […] This sequence of events may be engineered to accommodate short- and long-term beneficial responses. […]
Measurement of Mitochondrial Reactive Oxygen Species (ROS). Superoxide was measured using a MitoSoX™ Red mitochondrial superoxide indicator, according to the manufacturer's instructions. […] After washing three times with PBS, images were taken with a fluorescent microscope and fluorescence intensities were calculated using Nikon ND2 software.

[4] = Drug encapsulation (loading) efficiency of PLGA NPs; assay type: physicochemical; conditions: in PLGA NPs
Experimental: Drug Encapsulation Efficiency. To find the amount of P188 and NAC within the NPs, P188 was fluorescently modified (TAMRA-P188) and loaded into the NPs. Fluorescence intensity of TAMRA-P188 in the supernatant was quantified over time using a plate reader. NAC was measured with high-performance liquid chromatography (HPLC). The results were converted into concentrations, and the loading efficiency for P188 and NAC were 85% and 28%, respectively, and calculated using the following equation.

[5] = In vitro drug release from PLGA NPs; assay type: physicochemical
Experimental: In vitro Drug Release. For the release studies, 1 mg each from all prepared NPs were dispersed in 1 ml of release medium (pH 7.4) each to form a suspension. Each suspension was in three replicates in 1.5 ml centrifuge tubes and incubated at 37° C. The release buffers were collected after centrifugation at 15,000 rpm for 30 min. The release buffers were replaced with fresh buffer at different periods and subjected to analysis using HPLC. The cumulative release of the model drug from each loaded NPs was plotted against time.

SMILES	MMP-2 enzymatic activity [1]	MMP-9 enzymatic activity [2]	superoxide level (oxidative stress) [3]	loading efficiency [4]	time within which most of the release was achieved [5]	release ([5]; in 7 days)	time required to reach a half of the maximum release ([5]; pH 7.4, 37° C., linear regression)
c1cnc2c(c1)ccc1cccnc12 [phenanthroline]	inhibited	inhibited	–	–	–	–	–
CC(=O)N[C@@H](CS)C(=O)O [NAC, N-acetylcysteine]	–	–	noticeable attenuation of superoxide	28%	≤ 24 h	~100%	~7.7 h
